For this experiment, the target named is Beta-2 adrenergic receptor (Homo sapiens) (UniProt P07550).
Sequence of Beta-2 adrenergic receptor (Homo sapiens) (P07550 whole entry, looked up): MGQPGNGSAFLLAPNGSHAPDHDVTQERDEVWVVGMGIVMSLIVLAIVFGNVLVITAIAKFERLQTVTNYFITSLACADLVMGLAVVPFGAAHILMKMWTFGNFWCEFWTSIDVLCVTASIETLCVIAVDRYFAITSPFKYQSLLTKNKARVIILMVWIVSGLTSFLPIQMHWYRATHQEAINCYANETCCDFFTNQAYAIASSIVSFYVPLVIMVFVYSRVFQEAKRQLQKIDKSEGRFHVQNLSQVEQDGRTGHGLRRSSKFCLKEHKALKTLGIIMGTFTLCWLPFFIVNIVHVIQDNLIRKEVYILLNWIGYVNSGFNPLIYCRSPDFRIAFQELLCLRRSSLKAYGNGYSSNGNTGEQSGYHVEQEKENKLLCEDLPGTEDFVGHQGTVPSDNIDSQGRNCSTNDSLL

Description: Binding affinity to inactive/G protein-uncoupled human beta2-AR by immobilized artificial membrane HPLC analysis

`CC(C)(C)NCC(O)COc1cccc2[nH]c(C#N)cc12` (racemic) came in with a log K of 2.9.

Turning to `CC(C)(C)NCC(O)COc1cccc2c1CC(O)C(O)C2` (mixture of isomers), the log K was 1.7.

The record behind these values is ChEMBL document CHEMBL4425106, “Uncoupling the Structure-Activity Relationships of β2 Adrenergic Receptor Ligands from Membrane Binding” (J Med Chem, 2016).
